Reference: US20260223861A1, “NATURAL PESTICIDAL COMPOSITIONS AND METHODS OF CONTROLLING ARTHROPODS” (TERRAMERA, INC., priority 2023, published 2026)
Where “and” joins values, the source holds several entries; their conditions need not be identical. Equal entries are not always repeated.

Test system: German cockroaches
Assay: Spraying compositions on German cockroaches, knock-down and mortality (dead incl. moribund) observed
Type: in vivo
Details: knocked-down and dead insects, concentrations w/w in water
Description: In the following in vitro examples, various compounds were combined and the resulting composition was tested for efficacy. Each composition was mixed using a magnetic stir bar at room temperature (21° C.), except as otherwise noted herein. […] Water-insoluble and/or -immiscible ingredients, such as wintergreen oil, geraniol, oleic acid, and Na oleate, were dissolved and mixed as a separate fraction (the water-insoluble fraction). The water-insoluble fraction was then mixed with the water-soluble fraction by gentle stirring. All tested compositions comprised the tested compounds in solution with water. Each composition was tested for efficacy by spraying the composition on German cockroaches and observing the number of knocked-down and dead (including moribund) insects twice, once at 5 minutes after spraying and once at 48 hours after spraying. Either such measure of knock-down and mortality can be important in certain contexts. For example, 5-minute knock-down and mortality can be important in consumer contexts, as efficacy is often assessed over a short interval in such contexts. Shorter intervals, such as 30 seconds or 1 minute, are also or alternatively sometimes used in such contexts. As another example, 48-hour knock-down and mortality can be important in agricultural or industrial contexts, as total reduction in pest pressure may be more readily assessed over longer periods in such contexts. […] Ingredients were also tested for efficacy on their own (in dilution in water to provide the same concentration of the ingredient as in the tested compositions) using the same testing procedure. An expected efficacy for each formulation was determined based on the ingredients' individual tested efficacies based on the Colby equation, as described in greater detail by Ferry, Nancy; Stanley, Bruce H.; and Armel, Gregory (2005). “DESIGN AND […] OF BIOLOGICAL ASSAYS OF MIXTURES,” Conference on Applied Statistics in Agriculture. https://doi.org/10.4148/2475-7772.1133. Compositions with efficacy greater than this expected efficacy were determined to show synergistic efficacy.

[1] = 5 minutes after spraying, sulfate
[2] = 48 hours after spraying, sulfate

SMILES | Observed Efficacy (5 minutes after spraying) | Observed Efficacy (48 hours after spraying) | also measured
CCCCCCCCCCCCOS(=O)(=O)[O-].[Na+] [Sodium Lauryl Sulfate (2.5%), Sodium lauryl sulfate] |  |  | Observed Efficacy [1]: 0%; Observed Efficacy [2]: 0%
CCCCOC(=O)C(C)O (stereo not shown) [Butyl Lactate (20%), Butyl lactate] | 13% | 13% | 
CC(C)=CCC/C(C)=C/CO [Geraniol (10%), Geraniol] | 27% | 27% | 
CCCCCCCCCCCCOS(=O)(=O)[O-].[Na+] [Sodium Lauryl Sulfate (5%), Sodium lauryl sulfate] |  |  | Observed Efficacy (5 minutes after spraying, listed as Sodium lauryl sulfate (5%), sulfate): 7%; Observed Efficacy [1]: 7%; Observed Efficacy (48 hours after spraying, listed as Sodium lauryl sulfate (5%), sulfate): 7%; Observed Efficacy [2]: 7%
CCCCCCCCCCCCOS(=O)(=O)[O-].[Na+] [Sodium Lauryl Sulfate (10%), Sodium lauryl sulfate] |  |  | Observed Efficacy (5 minutes after spraying, listed as Sodium lauryl sulfate (10%), sulfate): 0%; Observed Efficacy [1]: 0%; Observed Efficacy (48 hours after spraying, listed as Sodium lauryl sulfate (10%), sulfate): 0%; Observed Efficacy [2]: 0%
CCCCCCCC/C=C\CCCCCCCC(=O)OCC(O)CO (stereo not shown) [Glycerol Monooleate (1.25%), Glycerol monooleate] | 0% | 0% | 
CCCCOC(=O)C(C)O (stereo not shown) [Butyl Lactate (2.5%), Butyl lactate] | 0% | 0% | 
CC(C)=CCC/C(C)=C/CO [Geraniol (2.5%), Geraniol] | 20% | 20% | 
CCCCCCCCCCCCOS(=O)(=O)[O-].[Na+] [Sodium Lauryl Sulfate (1.25%), Sodium lauryl sulfate] |  |  | Observed Efficacy [1]: 0%; Observed Efficacy [2]: 0%
CC(C)O [Isopropyl alcohol (5%), Isopropyl alcohol] | 0% | 0% | 
CCCCCCCC/C=C\CCCCCCCC(=O)O [Oleic Acid (20%), Oleic acid] | 5% and 0% | 5% and 0% | 
CCCCCCCC/C=C\CCCCCCCC(=O)O [Oleic Acid (5%), Oleic acid] | 0% | 0% | 
CC(C)=CCC/C(C)=C/CO [Geraniol (20%), Geraniol] | 5% | 5% | 
[Cl-].[Na+] [NaCl (2.5%), NaCl] | 0% | 0% | 
CC(C)O [Isopropyl alcohol (10%), Isopropyl alcohol] | 0% | 0% | 
CCCCOC(=O)C(C)O (stereo not shown) [Butyl Lactate (10%), Butyl lactate] | 7% | 7% | 
CC(C)=CCC/C(C)=C/CO [Geraniol (5%), Geraniol] | 7% | 7% | 
CCCCOC(=O)C(C)O (stereo not shown) [Butyl Lactate (5%), Butyl lactate] | 13% | 13% | 
